“Also recorded” adds a separate entry of the source. Where two headings read alike, the source gives them in different places.
Legend:
[1] = Plasma pharmacokinetics of lapatinib in rats (HPLC-MS/MS, non-compartmental); assay type: in vivo, Wistar rats; conditions: for AUC0-t / AUC(0-inf) / Cmax / Vd/F / k el / MRT last / tmax / AUMC0-t / Cl/F: plasma; for MRT last: read-out: MRT0-t
Description: The experimental protocol for this study was reviewed and approved by the Local Ethics Committee. All procedures were performed in accordance with the European Union regulations concerning the handling and use of laboratory animals. The study was based on the required minimum number of animals and observation time in order to obtain consistent data. […] The animals were allowed to acclimatise for a week before the beginning of the experiments. The rats were divided into three groups. […] In order to make sure that the animals received the entire dose of the drug, 1 mL of DMSO was then administered to rinse the probe. 80 μL of blood was collected from each rat by cutting off a piece of his tail. […] The blood samples were transferred into heparinised tubes and they were centrifuged at 2880 g for 10 min at 4 °C.
Chromatographic separation was performed on a Kinetex C18 column (50 × 4.6 mm, 2.6 μm, Phenomenex, Torrance, CA, USA). The column temperature and injection volume were set at 35 °C and 10 μL, respectively. The mobile phase comprised 0.1% formic acid in water with 5 mM ammonium formate (eluent A) and acetonitrile with 10% phase A (eluent B).
An aliquot of the rat plasma (20 μL) was mixed with 50 μL of IS solution (100 ng/mL) and 930 μL of methanol and then vortexed for 30 s. As a result, a total dilution factor of 50 was obtained. After centrifugation at 10,000 g (10 min), the supernatant was transferred into amber glass HPLC vials. The validation was performed according to the guidelines of EMA concerning validation of bioanalytical methods.
The pharmacokinetic parameters were estimated with the non-compartmental method, using Phoenix® WinNonlin® 7.0 software (Certara L.P.). kel – elimination rate constant; AUC0-t – area under the plasma concentration-time curve from zero to the time of the last measurable concentration; AUC0-∞ – area under the plasma concentration-time curve from zero to infinity; t0.5 – elimination half-life; Cl/F – clearance; Vd/F – volume of distribution; Cmax – maximum plasma concentration; tmax – time necessary to reach the maximum concentration; MRT0-t – mean residence time; AUMC0-t – area under the first moment curve.

UGT1A4 = test system: UGT1A4; parameters: method as in PMID 26642944; conditions: cited from earlier work
UGTs = conditions: in vitro, human liver microsomes; cited from earlier work
UGT1A1 = test system: UGT1A1; parameters: method as in PMID 26642944; conditions: cited from earlier work
UGT1A7 = test system: UGT1A7; parameters: method as in PMID 26642944; conditions: cited from earlier work
[2] = cited from earlier work
[3] = male, Wistar, rat, po, 100 mg/kg, rats, lapatinib 100 mg/kg p.o. + paracetamol 100 mg/kg p.o. (IL + PA), M ± SD
[4] = male, Wistar, rat, po, 100 mg/kg, rats, lapatinib 100 mg/kg p.o. alone (IIL), M ± SD
[5] = rats, lapatinib 100 mg/kg p.o. + paracetamol 100 mg/kg p.o. (IL + PA), M ± SD
[6] = rats, lapatinib 100 mg/kg p.o. alone (IIL), M ± SD
[7] = patients treated with lapatinib

CS(=O)(=O)CCNCc1ccc(-c2ccc3ncnc(Nc4ccc(OCc5cccc(F)c5)c(Cl)c4)c3c2)o1 [lapatinib, Lapatinib]
AUC0-t [1, 3]: 20700 ± 8270 ng·h/mL | AUC(0-inf) [1, 3]: 39500 ± 24000 ng·h/mL | Cmax [1, 3]: 2240 ± 585 ng/mL | Vd/F [1, 3]: 17.5 ± 2.55 L | k el [1, 3]: 1.94e-05 s⁻¹ | MRT last [1, 3]: 7.28 ± 3.15 h | AUC0-t [1, 4]: 6080 ± 3930 ng·h/mL | AUC(0-inf) [1, 4]: 8040 ± 4750 ng·h/mL | Cmax [1, 4]: 787 ± 213 ng/mL | Vd/F [1, 4]: 57.2 ± 23.3 L | k el [1, 4]: 2.5e-05 s⁻¹ | MRT last [1, 4]: 5.77 ± 1.95 h | tmax ([1]; male, Wistar, rat, po, 100 mg/kg, read-out: tmax): 2.42 ± 1.11 h | increase in Cmax ([1]; rats, co-administration with paracetamol (IL + PA) vs lapatinib alone (IIL)): 184% | AUMC0-t [1, 5]: 620.79 ± 1170.66 (188.6) mg × h^2/L | Cl/F [1, 5]: 2.81 ± 1.20 (42.8) L/h | tmax [1, 5]: 2.50 ± 0.84 (33.5) h | AUMC0-t [1, 6]: 40.79 ± 37.98 (93.1) mg × h^2/L | Cl/F [1, 6]: 11.46 ± 6.76 (59.0) L/h | UGT1A4 inhibition type (UGT1A4): mixed | inhibition of paracetamol glucuronidation (UGTs): slight inhibitory effect; also recorded: weak inhibitor | UGT1A1 inhibition (UGT1A1): strong competitive inhibitor | UGT1A7 inhibition type (UGT1A7): non-competitive | patients with isolated ALT increase more than 3 times ULN ([2]; patients subjected to lapatinib therapy): 3–5% | patients in whom ULN was exceeded 5–20 times [2, 7]: 1.6% | patients with hyperbilirubinemia and severe liver damage [2, 7]: 0.2%

Reference: article PMC6153549 (Investigational New Drugs, 2018)
